Data taken from US10519152B2, “Compounds and their use in treating cancer” (AstraZeneca AB, priority 2017, dated 2019).
pIC50: −log10 of the molar value.

Legend:
[1] = target: T1, recombinant human Estrogen Receptor alpha ligand binding domain, residues 307-554 (ER alpha-LBD (GST)) (Homo sapiens, UniProt P03372); test: ERα binding assay (LanthaScreen TR-FRET competition); conditions: TR-FRET competition with Fluormone ES2 tracer, 4 hours at room temperature; single experiment or average of two or more
T1 construct: made in house
T1 sequence (P03372 307-554): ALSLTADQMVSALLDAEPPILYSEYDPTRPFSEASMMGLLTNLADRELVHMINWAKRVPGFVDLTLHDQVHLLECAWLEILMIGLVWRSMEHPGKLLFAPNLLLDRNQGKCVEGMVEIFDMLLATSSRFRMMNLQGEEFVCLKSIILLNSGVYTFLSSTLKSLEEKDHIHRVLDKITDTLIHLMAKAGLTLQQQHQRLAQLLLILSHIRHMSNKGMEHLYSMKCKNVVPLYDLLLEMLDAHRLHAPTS
Method: The ability of compounds to bind to isolated Estrogen Receptor Alpha Ligand binding domain (ER alpha-LBD (GST)) was assessed in competition assays using a LanthaScreen™ Time-Resolved Fluorescence Resonance Energy Transfer (TR-FRET) detection end-point. For the LanthaScreen TR-FRET endpoint, a suitable fluorophore (Fluormone ES2, ThermoFisher, Product code P2645) and recombinant human Estrogen Receptor alpha ligand binding domain, residues 307-554 (expressed and purified in-house) were used to measure compound binding. The assay principle is that ER alpha-LBD (GST) is added to a fluorescent ligand to form a receptor/fluorophore complex. A terbium-labelled anti-GST antibody (Product code PV3551) is used to indirectly label the receptor by binding to its GST tag, and competitive binding is detected by a test compound's ability to displace the fluorescent ligand, resulting in a loss of TR-FRET signal between the Tb-anti-GST antibody and the tracer. The assay was performed as follows with all reagent additions carried out using the Beckman Coulter BioRAPTR FRD microfluidic workstation: • 1. Acoustic dispense 120 nL of the test compound into a black low volume 384 well assay plates. • 2. Prepare 1×ER alpha-LBD/Tb-antiGST Ab in ES2 screening buffer and incubate for 15 minutes. • 3. Dispense 6 μL of the […] reagent into each well of the assay plate followed by 6 μL of Fluorophore reagent into each well of the assay plate • 4. Cover the assay plate to protect the reagents from light and evaporation, and incubate at room temperature for 4 hours. • 5. Excite at 337 nm and measure the fluorescent emission signal of each well at 490 nm and 520 nm using the BMG PheraSTAR.
Compounds were dosed directly from a compound source microplate containing serially diluted compound (4 wells containing 10 mM, […] and 10 nM final compound respectively) to an assay microplate using the Labcyte Echo 550. The Echo 550 is a liquid handler that uses acoustic technology to perform direct microplate-to-microplate transfers of DMSO compound solutions and the system can be programmed to transfer multiple small nL volumes of compound from the different source plate wells to give the desired serial dilution of compound in the assay which is then back-filled to normalise the DMSO concentration across the dilution range.
In total 120 nL of compound plus DMSO were added to each well and compounds were tested in a 12-point concentration response format over a final compound concentration range of 10, 2.917, 1.042, 0.2083, 0.1, 0.0292, 0.0104, 0.002083, 0.001, 0.0002917, 0.0001042, and 0.00001 μM respectively. TR-FRET dose response data obtained with each compound was exported into a suitable software package (such as Origin or Genedata) to perform curve fitting analysis. Competitive ER alpha binding was expressed as an IC50 value. This was determined by calculation of the concentration of compound that was required to give a 50% reduction in tracer compound binding to ER alpha-LBD.

[2] = target: T2, Estrogen Receptor (ERα) in MCF-7 human ductal carcinoma breast cell line (Homo sapiens, UniProt P03372); test: MCF-7 ER degradation assay (cell based immuno-fluorescence); conditions: MCF-7 cells, 18-22 hours incubation, 50% reduction of ERα expression; single experiment or average of two or more; read-out: MCF-7 ER degradation IC50
T2 construct: endogenous in cells; host or cells: MCF-7
T2 sequence (P03372 1-595): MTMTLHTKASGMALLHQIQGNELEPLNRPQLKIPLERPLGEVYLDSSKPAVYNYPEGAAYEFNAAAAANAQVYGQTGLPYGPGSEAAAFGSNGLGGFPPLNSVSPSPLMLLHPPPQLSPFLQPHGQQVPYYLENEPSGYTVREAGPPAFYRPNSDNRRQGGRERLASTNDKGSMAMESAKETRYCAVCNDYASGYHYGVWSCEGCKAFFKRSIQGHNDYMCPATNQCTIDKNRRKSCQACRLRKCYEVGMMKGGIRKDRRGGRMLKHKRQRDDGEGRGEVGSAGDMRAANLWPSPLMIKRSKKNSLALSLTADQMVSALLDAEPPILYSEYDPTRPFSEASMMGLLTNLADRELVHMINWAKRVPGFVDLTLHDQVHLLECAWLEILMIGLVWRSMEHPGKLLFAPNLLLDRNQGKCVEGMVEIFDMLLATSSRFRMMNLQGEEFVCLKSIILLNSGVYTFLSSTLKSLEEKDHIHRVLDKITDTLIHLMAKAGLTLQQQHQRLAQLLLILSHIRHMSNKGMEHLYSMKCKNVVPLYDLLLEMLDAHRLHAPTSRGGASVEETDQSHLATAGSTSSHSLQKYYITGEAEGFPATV
Method: MCF-7 ER Degradation Assay
The ability of compounds to down-regulate Estrogen Receptor (ER) numbers was assessed in a cell based immuno-fluorescence assay using the MCF-7 human ductal carcinoma breast cell line. MCF-7 cells were revived directly from a cryovial (approx 5×10^6 cells) in Assay Medium (phenol red free Dulbecco's Modified Eagle's medium (DMEM); Sigma D5921) containing 2 mM L-Glutamine and 5% (v/v) Charcoal/Dextran treated foetal calf serum. Cells were syringed once using a sterile 18 G×1.5 inch (1.2×40 mm) broad gauge needle and cell density was measured using a Coulter Counter (Beckman). Cells were further diluted in Assay Medium to a density of 3.75×10^4 cells per mL and 40 μL per well added to transparent bottomed, black, tissue culture-treated 384 well plates (Costar, No. 3712) using a Thermo Scientific Matrix WellMate or Thermo Multidrop. Following cell seeding, plates were incubated overnight at 37° C., 5% CO2 (Liconic carousel incubator). Test data was generated using the LabCyte Echo™ model 555 compound reformatter which is part of an automated workcell (Integrated Echo 2 workcell). Compound stock solutions (10 mM) of the test compounds were used to generate a 384 well compound dosing plate (Labcyte P-05525-CV1). 40 μL of each of the 10 mM compound stock solutions was dispensed into the first quadrant well and then 1:100 step-wise serial dilutions in DMSO were performed using a Hydra II (MATRIX UK) liquid handling unit to give 40 μL of diluted compound into quadrant wells 2 (0.1 mM), 3 (1 μM) and 4 (0.01 μM), respectively. 40 μL of DMSO added to wells in row P on the source plate allowed for DMSO normalisation across the dose range. To dose the control wells 40 μL of DMSO was added to row O1 and 40 μL of 100 μM fulvestrant in DMSO was added to row O3 on the compound source plate.
The Echo uses acoustic technology to perform direct microplate-to-microplate transfers of DMSO compound solutions to assay plates. The system can be programmed to transfer volumes as low as 2.5 nL in multiple increments between microplates and in so doing generates a serial dilution of compound in the assay plate which is then back-filled to normalise the DMSO concentration across the dilution range. Compounds were dispensed onto the cell plates with a compound source plate prepared as above producing a 12 point duplicate […] dose range with 3-fold dilutions and one final 10-fold dilution using the Integrated Echo 2 workcell. The maximum signal control wells were dosed with DMSO to give a final concentration of 0.3%, and the minimum signal control wells were dosed with fulvestrant to give a final concentration of 100 nM accordingly. Plates were further incubated for 18-22 hours at 37° C., 5% CO2 and then fixed by the addition of 20 μL of 11.1% (v/v) formaldehyde solution (in phosphate buffered saline (PBS)) giving a final formaldehyde concentration of 3.7% (v/v). Cells were fixed at room temperature for 20 mins before being washed two times with 250 μL PBS/Proclin (PBS with a Biocide preservative) using a BioTek platewasher, 40 μL of PBS/Proclin was then added to all wells and the plates stored at 4° C. The fixing method described above was carried out on the Integrated Echo 2 workcell. Immunostaining was performed using an automated AutoElisa workcell. The PBS/Proclin was aspirated from all wells and the cells permeabilised with 40 μL PBS containing 0.5% Tween™ 20 (v/v) for 1 hour at room temperature. The plates were washed three times in 250 μL of PBS/0.05% (v/v) Tween 20 with Proclin (PBST with a Biocide preservative) and then 20 μL of ERα (SP1) Rabbit monoclonal antibody (Thermofisher) 1:1000 in PBS/Tween™/3% (w/v) Bovine Serum Albumin was added. The plates were incubated overnight at 4° C. (Liconic carousel incubator) and then washed three times in 250 μL of PBS/0.05% (v/v) Tween™ 20 with Proclin (PBST). […]

Row | Structure (SMILES) | pIC50 [1] | DC50 [2]
1 | CC(=O)O[C@@H]1C[C@@H](C(=O)NCc2ccc(-c3scnc3C)cc2)N(C(=O)[C@@H](NC(=O)COCCCCCCOc2cc(F)c([C@@H]3c4[nH]c5ccccc5c4C[C@@H](C)N3CC(C)(C)F)c(F)c2)C(C)(C)C)C1 [Example 52, (3R,5S)-1-((S)-2-(2-((6-(3,5-difluoro-4-((1R,3R)-2-(2-fluoro-2-methylpropyl)-3-methyl-2,3,4,9-tetrahydro-1H-pyrido[3,4-b]indol-1-yl)phenoxy)hexyl)oxy)acetamido)-3,3-dimethylbutanoyl)-5-((4-(4-methylthiazol-5-yl)benzyl)carbamoyl)pyrrolidin-3-yl acetate] | 8.96 | 2.1 nM
2 | Cc1ncsc1-c1ccc(CNC(=O)[C@@H]2C[C@@H](O)CN2C(=O)[C@@H](NC(=O)CCCN2CCN(CCCOc3cc(F)c([C@@H]4c5[nH]c6ccccc6c5C[C@@H](C)N4CC(C)(C)F)c(F)c3)CC2)C(C)(C)C)cc1 [Example 1, (2S,4R)-1-((S)-2-(4-(4-(3-(3,5-Difluoro-4-((1R,3R)-2-(2-fluoro-2-methylpropyl)-3-methyl-2,3,4,9-tetrahydro-1H-pyrido[3,4-b]indol-1-yl)phenoxy)propyl)piperazin-1-yl)butanamido)-3,3-dimethylbutanoyl)-4-hydroxy-N-(4-(4-methylthiazol-5-yl)benzyl)pyrrolidine-2-carboxamide] | 9.05 | 0.7 nM
3 | Cc1ncsc1-c1ccc(CNC(=O)[C@@H]2C[C@@H](O)CN2C(=O)[C@@H](NC(=O)CN2CCC3(CCN(CCOc4cc(F)c([C@@H]5c6[nH]c7ccccc7c6C[C@@H](C)N5CC(C)(C)F)c(F)c4)CC3)CC2)C(C)(C)C)cc1 [Example 43, (2S,4R)-1-((S)-2-(2-(9-(2-(3,5-difluoro-4-((R,3R)-2-(2-fluoro-2-methylpropyl)-3-methyl-2,3,4,9-tetrahydro-1H-pyrido[3,4-b]indol-1-yl)phenoxy)ethyl)-3,9-diazaspiro[5.5]undecan-3-yl)acetamido)-3,3-dimethylbutanoyl)-4-hydroxy-N-(4-(4-methylthiazol-5-yl)benzyl)pyrrolidine-2-carboxamide] | 8.64 | 4.8 nM
4 | Cc1ncsc1-c1ccc(CNC(=O)[C@@H]2C[C@@H](O)CN2C(=O)[C@@H](NC(=O)CCOCCCCOc2cc(F)c([C@@H]3c4[nH]c5ccccc5c4C[C@@H](C)N3CC(C)(C)F)c(F)c2)C(C)(C)C)cc1 [Example 92, (2S,4R)-1-((S)-2-(3-(4-(3,5-difluoro-4-((1R,3R)-2-(2-fluoro-2-methylpropyl)-3-methyl-2,3,4,9-tetrahydro-1H-pyrido[3,4-b]indol-1-yl)phenoxy)butoxy)propanamido)-3,3-dimethylbutanoyl)-4-hydroxy-N-(4-(4-methylthiazol-5-yl)benzyl)pyrrolidine-2-carboxamide] | 9.22 | 0.4 nM
5 | Cc1ncsc1-c1ccc(CNC(=O)[C@@H]2C[C@@H](O)CN2C(=O)[C@@H](NC(=O)COCCCCCOc2cc(F)c([C@@H]3c4[nH]c5ccccc5c4C[C@@H](C)N3CC(F)(F)CO)c(F)c2)C(C)(C)C)cc1 [Example 70, (2S,4R)-1-((S)-2-(2-((5-(4-((1R,3R)-2-(2,2-Difluoro-3-hydroxypropyl)-3-methyl-2,3,4,9-tetrahydro-1H-pyrido[3,4-b]indol-1-yl)-3,5-difluorophenoxy)pentyl)oxy)acetamido)-3,3-dimethylbutanoyl)-4-hydroxy-N-(4-(4-methylthiazol-5-yl)benzyl)pyrrolidine-2-carboxamide] | 9.10 | 0.9 nM
